The values that follow are results of earlier work, collected in patent US9981895B1 (Parnative, Inc., priority 2015, dated 2018).

Data set [1] relates to RAW 264.7 cell line. The conditions noted are these: MTT assay, Abbott et al. 2010.
The conditions of data set [2]: TBARS assay; CPC-purified compounds; Abbott et al. 2010.
Data set [3] concerns HeLa cell line. The conditions noted are these: MTT assay, Abbott et al. 2010.

As for `CC(C)/C=C/c1c(O)cc(/C=C/c2ccc(O)c(O)c2)cc1O` [arachidin-1], the “concentration at which cytotoxicity was demonstrated” value in data set [1] and in data set [3] was 27 µM in each case. Further, in data set [2], the “dose at which oxidation was inhibited” value was 7 µM.

For the molecule “5-RE)-2-(4-hydroxyphenyl) ethenyl]-2-[(1E)-2-phenylprop-1-en-1-yl]benzene-1,3-diol [arachidin-3]”, the “concentration at which cytotoxicity was demonstrated” value in data set [1] and in data set [3] was 55 µM each time. The “dose at which oxidation was inhibited” value in data set [2] is 14 µM.
